Values belong to the compound of their own block, whether it stands above or below them.
What was measured:
[1] = molecular target: T1, full-length CHK2 (Homo sapiens, UniProt O96017); assay: High-concentration AlphaScreen kinase assay (phosphorylation of CDC25C peptide); type: biochemical; conditions: for inhibition at 300 µM: primary screening data, compound concentration 300 µM, mean ± SD of triplicate, read-out: AlphaScreen™ (percentage inhibition)
T1 construct: full-length human CHK2 (residues 1 to 543); 6xHis (N); made in house; host or cells: Sf9 insect cells (baculovirus)
Protocol: To identify fragments binding in the ATP-binding-site of CHK2, we screened the in-house fragment library consisting of 1869 compounds, as described above, against full-length CHK2 using an AlphaScreen™ kinase assay, in which inhibition of full-length CHK2 was measured by a reduction in the phosphorylation of a CDC25C peptide (Figure S1). Because of the generally weak affinity of fragments, the assay was carried out at a high compound concentration (300 µM). […] All 45 hits were confirmed by re-assaying them under the same conditions. To eliminate potential false positives due to aggregation of poorly soluble fragments, or owing to interference with the AlphaScreen™ signal, the hits were assayed by including 0.01% (v/v) Triton™ X-100 in the assay buffer, and in the presence of phosphorylated rather than unphosphorylated peptide substrate, respectively. The average robust Z’ for the confirmation assays was 0.9. […] The final confirmed hit rate for the assay was 1.1%.
Full-length CHK2 was screened against the ICR fragment library consisting of 1869 fragments using a biochemical assay based on AlphaScreen™ technology in which the CHK2 kinase activity was measured by monitoring the phosphorylation of a CDC25C peptide using a phospho-specific antibody. Assay conditions were similar to those described by Hilton et al., but all fragments were screened at a final concentration of 300 µM. Amendments to the protocol included a change in the full-length CHK2 concentration to 2 nM and a final concentration of the antibody against phosphorylated CDC25C of 0.5 nM. For a positive control, 4-(2-amino-5-(thiophen-3-yl)pyridin-3-yl)benzoic acid (27, Figure S4, referred to as compound 19 in Hilton et al.) was added at a final concentration of 10 µM. The phosphorylation reaction was performed for 80 min at room temperature and stopped by the addition of 5 µL of the previously described detection buffer. Plates were incubated overnight at room temperature and in the dark, and the assay endpoint was measured using an Envision™ 2103 multilabel reader (Perkin Elmer Life Sciences, Seer Green, UK). Primary screening data were analyzed in ActivityBase (IDBS, Guildford, UK). Percentage inhibition was calculated as follows: 100*(1–(S–B)/(T–B)), where S represented the counts for each compound well, B the counts in the wells containing no enzyme, and T the counts in the total activity wells. The plates were assayed in triplicate and fragments with a percentage inhibition of 50% or more in at least two out of the three measurements were defined as initial hits. Initial hits were re-assayed under the same conditions in triplicate for reconfirmation. Furthermore, all hits were tested for interference by repeating the assay in the presence of phosphorylated rather than unphosphorylated peptide substrate, and for aggregation by including 0.01% (v/v) Triton™ X-100 in the assay buffer.

[2] = molecular target: T1, full-length CHK2; assay: Microfluidic mobility shift assay for IC50 determination; type: biochemical; conditions: for Ligand Efficiency: calculated using mean mobility shift IC50; for IC50: mean ± SD of triplicate
Protocol: In addition, percentage inhibition and IC50 values for all follow-up compounds were determined in triplicate using this assay. […] An ECHO® 550 acoustic dispenser (Labcyte Inc™, Dublin, Ireland) was used to generate duplicate eight-point dilution curves directly into 384-well low-volume polystyrene assay plates (Corning Life Sciences, New York, USA). For each compound, a 10 mM stock concentration in 100% DMSO was used.
The plate was sealed and centrifuged for 1 min at 1000 rpm before incubation for 1 h at room temperature.
IC50 values were calculated from a four-parameter logistics fit of percentage inhibition versus concentration using the Studies package (from Dotmatics, Bishops Stortford, UK).

[3] = molecular target: T2, kinase domain of CHK2 (CHK2-KD, residues 210-531) (Homo sapiens, UniProt O96017); assay: Thermal shift assay (SYPRO Orange); type: binding; conditions: for T m, ligand (standard deviations from the plate mean): highest value of two independent measurements, 2 mM fragment; for ΔT m, ligand: mean of two independent measurements, 2 mM ligand
T2 construct: The kinase domain of CHK2 (residues 210-531) was produced as a GST-fusion protein; GST (cleaved yes); made in house
Protocol: In parallel, we screened the fragment library against the kinase domain of CHK2 (CHK2-KD, residues 210-531) using a thermal shift assay. In a thermal shift assay, the folding stability of a target protein is measured by its thermally-induced unfolding. An increase in melting temperature of a protein in the presence of a ligand is used to identify ligand binding, assuming that the bound ligand stabilizes the target protein and therefore increases the energy required for its thermal unfolding. The thermal unfolding of CHK2-KD was measured using the fluorescent dye SYPRO® Orange™, which is sensitive to its environment and preferentially binds to hydrophobic patches that are typically exposed upon protein unfolding. To identify the hit threshold, we calculated the standard deviation (SD) of the melting temperature of CHK2 in the presence of a ligand (T m, ligand) for each plate. Ligands with a T m, ligand value of more than 2 standard deviations above the mean T m, ligand for each plate in at least one of the duplicates were defined as hits. We calculated the mean change in melting temperature from duplicate measurements (ΔT m, ligand) by subtracting the mean melting temperature of six reference samples of protein without ligand (T m, 0) from the melting temperature of CHK2 samples with ligand (T m, ligand).
Thermal shift screening of the ICR fragment library against a truncated version of CHK2 comprising only the kinase domain (CHK2-KD), was carried out using an Opticon 2 RT-PCR machine (Bio-Rad, Hemel Hempstead, UK). […] All experiments were performed in white 96-well SuperPlate skirted PCR-plates (ABgene®, Thermo Scientific, Loughborough, UK). Fragments were screened at a final concentration of 2 mM in assay buffer containing a final concentration of 2% (v/v) DMSO and all measurements were carried out in duplicate. The well contents were mixed by centrifugation for 2 min at 500 g and pre-equilibrated for 5 min at 20°C before starting the thermal shift experiment. All melting curves were generated from 20°C to 95°C, raising the temperature in steps of 0.5°C and keeping it constant for 15 seconds at each step. […] MgATP (2 mM ATP and 5 mM MgCl2) in the presence of 2% (v/v) DMSO was used as a positive control. For each experiment, the data range of the protein unfolding transition was established using the Excel-based worksheet ‘DSF Analysis’, made available by the Structural Genomics Consortium (SGC), Oxford, and subsequently fitted with a Boltzmann sigmoidal equation using GraphPad Prism version 5 (GraphPad Software, San Diego, California, USA, www.graphpad.com), from which the melting temperature T m was calculated. The change in melting temperature caused by ligand binding, expressed as the mean from duplicate measurements (ΔT m, ligand), was calculated by subtracting T m, 0 from each melting temperature obtained in the presence of a ligand (T m, ligand) using the DSF-analysis spreadsheet. The hit threshold was determined by calculating the standard deviation (SD) of the melting temperatures of CHK2 in the presence of ligand (T m, ligand) for every plate. Ligands with a T m, ligand>mean(T m, ligand) +2SD in at least one of the duplicates were defined as hits.

[4] = molecular target: T3, CHK1 (Homo sapiens, UniProt O14757); assay: CHK1 mobility shift assay; type: biochemical; conditions: inactive
T3 sequence (O14757 1-476): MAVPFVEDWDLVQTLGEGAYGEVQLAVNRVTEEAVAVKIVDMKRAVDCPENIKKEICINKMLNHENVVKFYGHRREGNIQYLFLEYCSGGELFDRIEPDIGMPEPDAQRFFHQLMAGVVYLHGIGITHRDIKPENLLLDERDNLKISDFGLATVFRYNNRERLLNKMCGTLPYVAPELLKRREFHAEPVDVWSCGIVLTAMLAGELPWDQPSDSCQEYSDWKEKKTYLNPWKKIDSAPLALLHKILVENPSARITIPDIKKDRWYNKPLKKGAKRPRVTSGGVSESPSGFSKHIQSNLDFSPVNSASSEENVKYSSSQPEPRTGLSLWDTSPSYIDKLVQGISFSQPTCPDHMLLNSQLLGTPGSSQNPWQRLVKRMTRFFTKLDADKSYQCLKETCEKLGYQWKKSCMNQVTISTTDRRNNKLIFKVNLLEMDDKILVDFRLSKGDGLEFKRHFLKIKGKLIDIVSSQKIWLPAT
From the text: However, it is very difficult to assess the contribution to selectivity of binding in this pocket using the inhibitor 26, because its CHK2 selectivity is most likely dominated by the unusual binding of the benzamidazole scaffold to the hinge through a mediating water molecule.

[5] = system: cancer cell lines; design: method as in PMID 19741151; conditions: cited from earlier work
[6] = system: ovarian cancer cell lines; conditions: cited from earlier work
[7] = follow-up compounds from similarity search (Table 2)

T2 sequence (O96017 210-531): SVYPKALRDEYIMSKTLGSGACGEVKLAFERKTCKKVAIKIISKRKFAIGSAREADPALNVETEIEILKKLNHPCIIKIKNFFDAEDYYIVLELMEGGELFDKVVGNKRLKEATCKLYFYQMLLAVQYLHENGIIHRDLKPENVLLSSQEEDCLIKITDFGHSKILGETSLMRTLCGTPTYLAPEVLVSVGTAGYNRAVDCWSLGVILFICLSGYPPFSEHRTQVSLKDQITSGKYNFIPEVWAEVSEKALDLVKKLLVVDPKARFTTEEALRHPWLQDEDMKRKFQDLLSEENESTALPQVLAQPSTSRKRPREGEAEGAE
T1 sequence (O96017 whole entry, the tested form may be a part): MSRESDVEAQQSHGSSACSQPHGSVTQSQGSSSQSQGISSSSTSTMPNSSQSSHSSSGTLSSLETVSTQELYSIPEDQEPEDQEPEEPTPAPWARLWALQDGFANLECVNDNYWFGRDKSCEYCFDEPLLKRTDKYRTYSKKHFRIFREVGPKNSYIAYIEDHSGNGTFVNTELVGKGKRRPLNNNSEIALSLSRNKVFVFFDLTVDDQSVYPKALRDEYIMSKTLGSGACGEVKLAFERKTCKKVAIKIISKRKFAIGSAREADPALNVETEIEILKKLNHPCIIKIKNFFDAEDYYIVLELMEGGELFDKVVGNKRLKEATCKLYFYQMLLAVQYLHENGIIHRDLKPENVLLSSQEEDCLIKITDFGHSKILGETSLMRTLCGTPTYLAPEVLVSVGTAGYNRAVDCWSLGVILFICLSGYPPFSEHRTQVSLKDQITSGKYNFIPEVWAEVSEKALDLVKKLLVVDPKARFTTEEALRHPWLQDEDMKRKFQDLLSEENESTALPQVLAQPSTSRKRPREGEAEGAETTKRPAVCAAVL

Structure (SMILES): Cc1n[nH]c(N)c1-c1cccs1 [Compound 18]
inhibition at 300 µM [1]: 60.9 ± 2.1%
Ligand Efficiency ([2]; Table 1): 0.47 kcal mol^−1 HA^−1
IC50 ([2]; fragment hits, 100 µM ATP): 76.8 ± 1.4 µM
T m, ligand (standard deviations from the plate mean) [3]: 4.6 standard deviations
ΔT m, ligand [3]: 3.9±1.3 °C

Structure (SMILES): CC(=O)N1CCC(C(=O)Nc2ccc(C)cn2)CC1 [Compound 19]
inhibition at 300 µM [1]: 34.7 ± 0.93%
Ligand Efficiency ([2]; Table 1): 0.26 kcal mol^−1 HA^−1
IC50 ([2]; fragment hits, 100 µM ATP): 228 ± 22.2 µM
T m, ligand (standard deviations from the plate mean) [3]: 5.7 standard deviations
ΔT m, ligand [3]: 4.0±0.6 °C

Structure (SMILES): c1coc(-c2ccnc3[nH]nc(C4CC4)c23)c1 [Compound 20]
Ligand Efficiency ([2]; Table 2): 0.42 kcal mol^−1 HA^−1
IC50 [2, 7]: 7.2 ± 2.9 µM

Structure (SMILES): c1cncc(-c2n[nH]c3ccnc(-c4cccs4)c23)c1 [Compound 21]
Ligand Efficiency ([2]; Table 2): 0.32 kcal mol^−1 HA^−1
IC50 [2, 7]: 21.3 ± 2.1 µM

Structure (SMILES): C/C(=N\NC(=N)N)c1ccc(NC(=O)c2cc3cccc([N+](=O)[O-])c3[nH]2)cc1 [PV1019, 7-nitro-1H-indole-2-carboxylic acid {4-[1-(guanidinohydrazone)-ethyl]-phenyl}-amide]
Antiproliferative effect [5]: antiproliferative effect
Potentiation of the cytotoxicity of topotecan and campothecan ([6]; ovarian cancer cell lines): potentiation of the cytotoxicity

Structure (SMILES): CC(CO)NC(=N)c1c(O)nsc1Nc1ccc(Nc2ccc(Br)cc2)cc1 (centres unmarked) [VRX0466617]
Potentiation in combination with genotoxic agents [6]: no such effects have been observed

The next lines start with the values.

Ligand Efficiency ([2]; Table 2): 0.34 kcal mol^−1 HA^−1
IC50 [2, 7]: 3.6 ± 1.2 µM
IC50 [4]: > 200 µM
Structure (SMILES): COc1ccc(CNC(=O)c2ccc3nccnc3c2)cc1 [Compound 22]

Ligand Efficiency ([2]; Table 2): 0.28 kcal mol^−1 HA^−1
IC50 [2, 7]: 14.2 ± 8.6 µM
Structure (SMILES): CCOC(=O)N1CCN(C(=O)Nc2ccc3nccnc3c2)CC1 [Compound 23]

inhibition at 10 µM ([1]; concentration of 10 µM, read-out: AlphaScreen™ percentage inhibition, positive control): 62.7%
Structure (SMILES): Nc1ncc(-c2ccsc2)cc1-c1ccc(C(=O)O)cc1 [Compound 27, 4-(2-amino-5-(thiophen-3-yl)pyridin-3-yl)benzoic acid, reference compound]
